Data on one compound can be found in PMC6348924, “Detection of Active Caspase-3 in Mouse Models of Stroke and Alzheimer's Disease with a Novel Dual Positron Emission Tomography/Fluorescent Tracer [^68Ga]Ga-TC3-OGDOTA” (Contrast Media & Molecular Imaging, 2019).

This test relates to primary cortical neuronal cultures treated with CPT. The test is described as follows: Ga-TC3-OGDOTA accumulation in CPT toxicity assay. The format is cell-based, mouse. Conditions: 10 μM CPT, 24 h. The procedure: For the in vitro cell culture studies, primary hippocampal and cortical neuronal cultures were prepared from E17 mouse embryos as described previously and cultured in regular neuronal medium (RNM) containing 1x B27, 0.5 mM glutamine, 0.25% glucose in Neurobasal medium (Invitrogen).
Three different conditions known to induce neuronal apoptosis were used to study Ga-TC3-OGDOTA uptake in cell culture: camptothecin (CPT) toxicity, OGD, and AβO toxicity. […] For the CPT toxicity assay, cortical neurons were treated with 0 (control) or 10 μM CPT (Sigma-Aldrich) for 24 h at normal conditions (5% CO2, 37°C). After that the cultures were washed with RNM and incubated with various concentrations of Ga-TC3-OGDOTA for 7 h, followed by either direct live imaging or fixation with 4% paraformaldehyde (PFA) in PBS for staining. […]
For coimaging of Hoechst 33342 (Hoechst), 4′,6′-Diamidino-2-Phenylindole (DAPI), Oregon Green and CC3, fixed cultures were immunostained with anti-CC3 antibody (1 : 500, Cell Signaling, cat#9661) followed by antirabbit secondary antibody and DAPI or Hoechst. […] Cells positive for tracer, CC3, and total number of cells were counted using the ImageJ (NIH, Bethesda, MD) Cell Counter plugin and their ratio was compared between the treatments.

As to `CC[C@@]1(O)C(=O)OCc2c1cc1n(c2=O)Cc2cc3ccccc3nc2-1` [CPT, camptothecin], the “effect on number of apoptotic neurons in the culture” value is “elevated”.
